# Data from article PMC8677862, “Substrate binding modes of purine and pyrimidine nucleotides to human ecto-5′-nucleotidase (CD73) and inhibition by their bisphosphonic acid derivatives” (Purinergic Signalling, 2021).
# Several values for one entry are separate records, joined by “and”; a condition that tells them apart may be missing. Equal values may be shown once. Where a name gives a salt, the structure may show the parent alone. Read-outs that look alike come from different tables or passages of the source.
# Columns and labels:
# [1] = target: T1, CD73 (Homo sapiens, UniProt P21589, K145S/K147S/K478S/N311D/N333D/N403D/N53D/T376A); test: Crystallographic fragment screening by crystal soaking, open form of CD73; type: binding
# T1 construct: His6 (C); made in house
# T1 sequence (P21589 27-549 N53D/K145S/K147S/N311D/N333D/T376A/N403D/K478S limits assumed): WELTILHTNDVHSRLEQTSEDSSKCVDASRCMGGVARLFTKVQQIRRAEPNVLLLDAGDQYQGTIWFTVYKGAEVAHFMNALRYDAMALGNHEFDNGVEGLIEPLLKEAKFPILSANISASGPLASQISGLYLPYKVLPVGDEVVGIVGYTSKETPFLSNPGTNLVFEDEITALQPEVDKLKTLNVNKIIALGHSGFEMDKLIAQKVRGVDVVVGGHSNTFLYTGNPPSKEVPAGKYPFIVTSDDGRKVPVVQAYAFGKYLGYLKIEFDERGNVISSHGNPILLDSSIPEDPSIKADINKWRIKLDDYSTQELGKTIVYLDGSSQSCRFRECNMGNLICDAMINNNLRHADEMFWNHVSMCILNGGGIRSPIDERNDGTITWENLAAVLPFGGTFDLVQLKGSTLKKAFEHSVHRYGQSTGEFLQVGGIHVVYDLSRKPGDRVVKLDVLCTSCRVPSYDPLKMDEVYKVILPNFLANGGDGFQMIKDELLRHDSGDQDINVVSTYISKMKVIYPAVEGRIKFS
# Method: Purified CD73 was concentrated to 7 mg/mL, and hanging drop crystallizations were set up versus 100 mM Tris pH 7.8 and 10% PEG6000, using equal amounts of protein and reservoir solution. Crystallisation experiments were carried out at 19 °C. Following crystal formation (1–2 days), the crystals were transferred to soaking solution containing reservoir solution with additional commercially available nucleotides or fragments (see Table S1) at concentrations between 2 and 100 mM. Crystals were then transferred to cryo solution containing an additional 20% glycerol, soaked for ~ 2–5 min and flash frozen in liquid nitrogen.
# X-ray data collection was carried out at 100 K using a wavelength of 0.91841 Å on beamline 14.1 of the Berlin Synchrotron (BESSY, Berlin, Germany) equipped with a PILATUS 6 M detector [43]. All datasets were indexed, integrated, scaled and converted to structure factor amplitudes using XDSAPP [44] and AIMLESS [45]. The crystals belong to crystal form II of CD73 (pdb id 4h1y), which was used as a starting model for refinement. Coot and REFMAC5 [47] were used for model building and refinement. The final structures were validated using PROCHECK [48] and outliers in the Ramachandran plot were checked manually.
# The HZB fragment library used for this work contains 102 compounds [41]. […] The presence of 12 compounds containing a nucleoside moiety in the fragment library contributed to the high hit rate of 23.5%.
# [2] = target: CD73; conditions: competitive inhibitor of CD73, cited from earlier work
# [3] = target: T1, CD73; test: Michaelis–Menten kinetics of CD73-mediated AMP hydrolysis, malachite green assay; type: biochemical; conditions: AMP 5-200 μM, 1.25 ng CD73
# Method: In this study, enzyme activity and inhibition data was characterised using a modified malachite green assay. Each assay consisted of reaction buffer A (50 mM Tris–HCl pH 7.5, 100 mM NaCl, 1 mM MgCl2) to which the appropriate substrate and/or inhibitors (see Table S1) were added. Dissolved compounds were immediately used for the inhibition assays. The reactions were generally initiated by the addition of protein. The protein concentrations, substrates and inhibitors used for the various experiments are detailed below. In all experiments, reactions were monitored over a 10-min period during which samples were taken at regular intervals. At each desired time point, a malachite green/molybdate (1:1) solution was added to the sample, which simultaneously terminated the assay and also allowed the detection of the produced phosphate ions. These reaction mixtures were incubated at 25 °C for 25 min, followed by measurement of the absorbance at 620 nm. […]
# The specific activity (μmol Pi/min/mg protein) was calculated from the initial reaction rates and was used to determine when the protein refolding process had reached completion. […] Kinetic values were determined by fitting the Michaelis–Menten equation to the initial reaction rates using GraphPad Prism (GraphPad Software, La Jolla, CA, USA). […]
# [4] = tested on: CD73; conditions: cited from earlier work; for Km: AMP as substrate; for specific activity: AMP; for turnover rate: substrate of CD73
# [5] = target: rat CD73; conditions: cited from earlier work
# [6] = parameters: method as in earlier work; conditions: last proton on the β-phosphonate group; cited from earlier work
# [7] = target: T1, CD73; test: Substrate preference of CD73 for nucleoside monophosphates, malachite green assay; type: biochemical; conditions: 1 mM substrate; for percentage activity relative to AMP (100%): 1.25 ng CD73; for decrease in absolute activity (relative to AMP) compared with the ribonucleotide equivalent: deoxyribo form vs ribo form
# Method: Each assay consisted of reaction buffer A (50 mM Tris–HCl pH 7.5, 100 mM NaCl, 1 mM MgCl2) to which the appropriate substrate and/or inhibitors (see Table S1) were added. Dissolved compounds were immediately used for the inhibition assays. The reactions were generally initiated by the addition of protein. The protein concentrations, substrates and inhibitors used for the various experiments are detailed below. In all experiments, reactions were monitored over a 10-min period during which samples were taken at regular intervals. At each desired time point, a malachite green/molybdate (1:1) solution was added to the sample, which simultaneously terminated the assay and also allowed the detection of the produced phosphate ions. These reaction mixtures were incubated at 25 °C for 25 min, followed by measurement of the absorbance at 620 nm. A standard curve (0–50 μM orthophosphate) was performed prior to each assay and was used to calculate the phosphate concentration. All measurements were carried out in triplicate. […] The specific activity (μmol Pi/min/mg protein) was calculated from the initial reaction rates and was used to determine when the protein refolding process had reached completion. […] Kinetic values were determined by fitting the Michaelis–Menten equation to the initial reaction rates using GraphPad Prism (GraphPad Software, La Jolla, CA, USA).
# [8] = target: T1, CD73; test: CD73 inhibition, malachite green assay; type: biochemical
# Method: In this study, enzyme activity and inhibition data was characterised using a modified malachite green assay. Each assay consisted of reaction buffer A (50 mM Tris–HCl pH 7.5, 100 mM NaCl, 1 mM MgCl2) to which the appropriate substrate and/or inhibitors (see Table S1) were added. Dissolved compounds were immediately used for the inhibition assays. The reactions were generally initiated by the addition of protein. The protein concentrations, substrates and inhibitors used for the various experiments are detailed below. In all experiments, reactions were monitored over a 10-min period during which samples were taken at regular intervals. At each desired time point, a malachite green/molybdate (1:1) solution was added to the sample, which simultaneously terminated the assay and also allowed the detection of the produced phosphate ions. These reaction mixtures were incubated at 25 °C for 25 min, followed by measurement of the absorbance at 620 nm. A standard curve (0–50 μM orthophosphate) was performed prior to each assay and was used to calculate the phosphate concentration. All measurements were carried out in triplicate.
# To study the inhibition kinetics of CD73 against a panel of commercially available nucleotide-diphosphate analogues (AMPCP, GMPCP, dUMPCP and CMPCP; see Table S1), their IC50 values were determined. In these tests, CD73 protein (1.25 ng) was incubated in reaction buffer A containing various inhibitor concentrations (0.015, 0.031, 0.061, 0.12, 0.24, 0.49, 0.98, 1.95, 3.91, 7.81, 15.62, 31.25, 62.5, 125, 250 and 500 μM). […] Dose–response curves were plotted in GraphPad Prism (GraphPad Prism Software, La Jolla, CA, USA), and the inflection point of each curve was used to determine the IC50 value of each inhibitor. The IC50 values were then used to calculate the Ki value of each inhibitor using the Cheng-Prusoff equation [51].
# [9] = tested on: rat CD73; test: Literature inhibition of rat CD73; type: biochemical; conditions: rat CD73, from literature Ki values
# [10] = calculated from IC50 with the Cheng-Prusoff equation, human deglycosylated CD73 construct, read-out: Ki
compound,measurement,setting,value
O=[N+]([O-])c1ccc(O)c(O)c1 [4-nitrocatechol],binding to the nucleoside binding site (crystal structure),[1],did bind to the nucleoside binding site
O=c1[nH]cc(I)c(=O)[nH]1 [5-iodouracil],binding to the nucleoside binding site (crystal structure),[1],did bind to the nucleoside binding site
Nc1ncnc2c1ncn2[C@@H]1O[C@H](COP(=O)(O)OP(=O)(O)O)[C@@H](O)[C@H]1O [ADP],Ki,[2]; ref 29,3.88 µM
same,Ki,[2]; ref 32,0.082 µM
same,Ki,[2]; ref 33,0.91 µM
"Nc1ncnc2c1ncn2[C@@H]1O[C@H](COP(=O)(O)O)[C@@H](O)[C@H]1O [AMP, Adenosine 5'-monophosphate]",Vmax,[3],301.2 ± 2.9 U/mg
same,Km,[4]; same construct after refolding,6.6 µM and 7 µM
same,Km,[4]; ref 8,1 to 50 µM
same,Km,[4]; ref 29,59 µM
same,specific activity,[4]; human CD73 purified from an adenocarcinoma cell line,130 U/mg
same,specific activity,[4]; this construct after refolding,577.2 U/mg
same,turnover rate,[4],856 nmol/min/mg
"Nc1ncnc2c1ncn2[C@@H]1O[C@H](COP(=O)(O)CP(=O)(O)O)[C@@H](O)[C@H]1O [AMPCP, Adenosin 5'-[α,β-methylene] diphosphoric acid]",Ki,[5],0.197 ± 0.005 µM
same,pKa,[6],8.3
Nc1ncnc2c1ncn2[C@@H]1O[C@H](COP(=O)(O)OP(=O)(O)OP(=O)(O)O)[C@@H](O)[C@H]1O [ATP],Ki,[2]; ref 32,1.5 µM
same,Ki,[2]; ref 33,8.9 µM
"Nc1ccn([C@@H]2O[C@H](COP(=O)(O)O)[C@@H](O)[C@H]2O)c(=O)n1 [CMP, Cytidine 5′-monophosphate]",percentage activity relative to AMP (100%),[7],73.4%
"Nc1ccn([C@@H]2O[C@H](COP(=O)(O)CP(=O)(O)O)[C@@H](O)[C@H]2O)c(=O)n1 [CMPCP, Cytidine-5'-[(α,β)-methyleno]diphosphate, Sodium salt]",Ki,[8]; [10],0.304 ± 0.0058 µM
same,ratio Ki (CMPCP)/Ki (AMPCP),[8]; human CD73 construct of this work,5.1
same,IC50,[8]; read-out: IC50,3.2 ± 0.02 µM
same,ratio Ki (CMPCP)/Ki (AMPCP),[9],4.6
same,Ki,[5],0.898 ± 0.063 µM
"Nc1nc2c(ncn2[C@@H]2O[C@H](COP(=O)([O-])[O-])[C@@H](O)[C@H]2O)c(=O)[nH]1.[Na+].[Na+] [GMP, Guanosin-5'-monophosphat Dinatriumsalz]",percentage activity relative to AMP (100%),[7],33.2%
"Nc1nc2c(ncn2[C@@H]2O[C@H](COP(=O)(O)CP(=O)(O)O)[C@@H](O)[C@H]2O)c(=O)[nH]1 [GMPCP, α,β-Methyleneguanosine 5′-diphosphate sodium salt]",IC50,[8],1.42 ± 0.02 µM
same,Ki,[8],0.135 ± 0.0027 µM
NC(=O)c1ccc[n+]([C@@H]2O[C@H](COP(=O)([O-])OP(=O)(O)OC[C@H]3O[C@@H](n4cnc5c(N)ncnc54)[C@H](O)[C@@H]3O)[C@@H](O)[C@H]2O)c1 [NAD^+],turnover rate,[4],5 nmol/min/mg
"O=c1ccn([C@@H]2O[C@H](COP(=O)([O-])[O-])[C@@H](O)[C@H]2O)c(=O)[nH]1.[Na+].[Na+] [UMP, Uridin-5'-Monophosphate Dinatriumsalz]",percentage activity relative to AMP (100%),[7],87.1%
O=c1ccn([C@@H]2O[C@H](COP(=O)(O)CP(=O)(O)O)[C@@H](O)[C@H]2O)c(=O)[nH]1 [UMPCP],Ki,[5],1.83 ± 0.53 µM
Cn1c(=O)c2c(ncn2C)n(C)c1=O [caffeine],binding to the nucleoside binding site (crystal structure),[1],did bind to the nucleoside binding site
"Nc1ncnc2c1ncn2[C@H]1C[C@H](O)[C@@H](COP(=O)(O)O)O1 [dAMP, 2′-Deoxyadenosine 5′-monophosphate]",decrease in absolute activity (relative to AMP) compared with the ribonucleotide equivalent,[7],28.8%
"Nc1ccn([C@H]2C[C@H](O)[C@@H](COP(=O)(O)O)O2)c(=O)n1 [dCMP, 2′-Deoxycytidine 5′-monophosphate]",percentage activity relative to AMP (100%),[7],47.6%
"Nc1nc2c(ncn2[C@H]2C[C@H](O)[C@@H](COP(=O)(O)O)O2)c(=O)[nH]1 [dGMP, 2′-Deoxyguanosine 5′-monophosphate]",percentage activity relative to AMP (100%),[7],4.8%
same,decrease in absolute activity (relative to AMP) compared with the ribonucleotide equivalent,[7],28.4%
"Cc1cn([C@H]2C[C@H](O)[C@@H](COP(=O)([O-])[O-])O2)c(=O)[nH]c1=O.[Na+].[Na+] [dTMP, Thymidine 5'-Monophosphate Natriumsalz]",percentage activity relative to AMP (100%),[7],49.4%
same,binding to the nucleoside binding site (crystal structure),[1],only low occupancy binding
"O=c1ccn([C@H]2C[C@H](O)[C@@H](COP(=O)(O)CP(=O)(O)O)O2)c(=O)[nH]1 [dUMPCP, 2'-Deoxyuridine-5'-[(α,β)-methyleno]diphosphate, Sodium salt]",Ki,[8]; [10],0.374 ± 0.0069 µM
same,loss in affinity,[8]; comparison between CMPCP and dUMPCP,1.2 fold
same,IC50,[8]; read-out: IC50,3.94 ± 0.01 µM
NC(=O)c1ccc[n+]([C@@H]2O[C@H](COP(=O)([O-])O)[C@@H](O)[C@H]2O)c1 [nicotinamide mononucleotide],turnover rate,[4],110 nmol/min/mg
Cc1cc2nc3c(=O)[nH]c(=O)nc-3n(C[C@H](O)[C@H](O)[C@H](O)CO)c2cc1C [riboflavin],binding to the nucleoside binding site (crystal structure),[1],did bind to the nucleoside binding site
